According to patent US20230390291A1, “TREATMENT OF SKIN DISORDERS WITH COMPOSITIONS COMPRISING AN EGFR INHIBITOR” (Sol-Gel Technologies Ltd., priority 2018, published 2023):
Structures can show the parent of a compound that is named as a salt. Where two headings read alike, the source gives them in different places.

Columns and labels:
[1] = test system: psoriasis-induced human skin xenotransplants; assay: Histological evaluation of psoriasis-induced xenotransplants; format: in vivo, beige-SCID mice; conditions: topical for 14 days, histology on Day 56
Description: The objective of this study was to determine the efficacy of Erlotinib 5% as provided herein compared to the vehicle and Dexamethasone as shown at the Table below. The evaluation was based on histology analysis following application of the respective test formulations.
The efficacy study has been conducted on female mice. The total duration of the experiment was 8 weeks, upon receiving of the human skin. Normal skin from healthy volunteers were obtained for grafting. Healthy human abdominal skin pieces with a width of 0.4 mm and surface area of 1.5×1.5 cm were provided. The skin sample was preserved in isotonic saline solution and transplanted within 6-12 hours after skin donation. In addition, blood samples were collected from psoriatic patients having classic plaque psoriasis and not undergoing any treatment. 20 mL blood samples were taken from both males and females psoriatic patients (from psoriatic patients having classic plaque psoriasis and not undergoing any treatment), and peripheral blood mononuclear cells (PBMC) were separated immediately after blood withdrawal.
Mice: Beige-severe combined immunodeficient mice C.B-17/IcrHsdscid-bg (beige-SCID) mice (weight ˜25 g) were included in this study. Mice were monitored twice a week for vital signs such as weight, food intake, coat, eyes, anal genital areas, discharge/soiling, behavior and criteria related to skin transplantation. Normal healthy human donor skin were transplanted onto the beige-SCID mice as previously described (See Keren A. et al., Novel nanosome delivery system combined with siRNA targeting the antimicrobial gene DFB4: a new approach for psoriasis management?ExpDermatol. 2014; 23:464-465; Bracke S. et al.,Targeted silencing of DEFB4 in a bioengineered skin-humanized mouse model for psoriasis: development of siRNA SECosome-based novel therapies. ExpDermatol. 2014 ;23:199-201; Zaretsky M. et al., Directed evolution of a soluble human IL-17A receptor for the inhibition of psoriasis plaque formation in a mouse model. Chem Biol. 2013 21; 20:202-2; Gilhar A. et al., The beneficial effect of blocking Kv1.3 in the psoriasiform SCID mouse model. J Invest Dermatol. 2011;131:118 124; Keren A. et al., Innate lymphoid cells 3 induce psoriasis in xenotransplanted healthy human skin. J Allergy Clin Immunol. 2018;142:305-308.e6.).
British Journal of Pharmacology 2010; 159:842-855).
Four weeks following the engraftment, each mouse was injected (intradermally) with 1×10^7 IL-2 enriched allogeneic PBMC's from psoriatic patients (1×10^7 cells injected/mouse). Cells from different psoriasis patients were equally distributed between treatment groups. Each patient was represented in each treatment group.
Fourteen days following cells injections, the mice were divided into treatment groups (Table, see below) and treated according to the timeline indicated below (see Scheme 1). Each transplant was equally topically treated (50 μg) by using a sterile spatula.
Dexamethasone (D2915, Sigma): was freshly prepared for each administration by dilution in saline to final concentration (50 mg/ml). Dexamethasone serves as a positive control and was administered topically twice daily for 14 days following cells injections (at Day 42 following human skin transplantation) until the end of the study (Day 56).
The vehicle was administered topically (50 μg) once daily for 14 days as well.
On Day 56, the entire skin graft was excised and placed in 10% formaldehyde in saline overnight. Then, the specimens were placed in 70% ethanol and embedded and stained according to the standard Hematoxylin/Eosin protocol.
Skin graft histological assessment was performed (according to the psoriatic criteria including epidermal thickness) using light microscopy, and two observers blindly performed the evaluations. Epidermal thickness was determined using an ocular micrometer at a minimum of 50 points along the epidermis selected to represent points of maximal and minimal thickness. […]

[2] = cited from earlier work
Ki67 = assay: Epidermal proliferation of transplants, Ki67 immunohistochemical staining; format: in vivo, beige-SCID mice; conditions: xenotransplants after 14 days of treatment
Description: From the study of Example 11, the human skin xenotransplants were harvested and fixed in 10% saline-buffered formalin overnight followed by 70% ethanol. Sections were stained and visualized with immunohistochemistry.
Antigen retrieval was performed on the slides for 20 minutes in a microwave followed by cooling at room temperature for 25 minutes. Specimens were blocked for 30 minutes to prevent nonspecific binding and incubated with the primary antibody (Ab) overnight. The following primary antibodies were used: mouse anti human Ki67. Samples were then washed and incubated for 30 minutes with a biotinylated secondary antibody (Jackson ImmunoResearch, West Grove, Pa.). Finally, samples were washed and incubated with streptavidin-horseradish peroxidase (Jackson ImmunoResearch, West Grove, Pa.). […] Samples were examined using light microscopy.
Slides were evaluated by experienced blinded observers. The fields of immunostained sections were counted in three areas and presented randomly to the observer(s).

[3] = number of transplants out of 10

C[C@@H]1C[C@H]2[C@@H]3CCC4=CC(=O)C=C[C@]4(C)[C@@]3(F)[C@@H](O)C[C@]2(C)[C@@]1(O)C(=O)CO [Dexamethasone]
Complete Recovery [1, 3]: 9/10 | Partial Recovery [1, 3]: 1/10 | Psoriatic Features [1, 3]: 0/10 | Complete Recovery ([1]; percent of transplants): (90%) | Partial Recovery ([1]; percent of transplants): (10%) | Psoriatic Features ([1]; percent of transplants): (0%)

C#Cc1cccc(Nc2ncnc3cc(OCCOC)c(OCCOC)cc23)c1 [Erlotinib hydrochloride]
Solubility ([2]; in acetone): practically insoluble | Solubility ([2]; in acetonitrile): practically insoluble | Solubility ([2]; in ethyl acetate): practically insoluble | Solubility ([2]; in hexane): practically insoluble | Solubility ([2]; in methanol): slightly soluble | Solubility ([2]; in water): very slightly soluble

C#Cc1cccc(Nc2ncnc3cc(OCCOC)c(OCCOC)cc23)c1 [Erlotinib, N-(3-ethynylphenyl)-6,7-bis(2-methoxyethoxy)-4-quinazolinamine]
proliferation index (Ki-67) compared to vehicle-treated xenotransplants (Ki67): significant decrease
